Tests used:
[1] = Test for expectorant activity (phenol red in trachea); format: in vivo, mice
Experimental: Using the method of Engler et al. ([…]. Pharmacol. […] Jian-Hua Shang et al, J. Ethnopharmacology, 129, 293-298, 2010), the expectorant activity of the extract of the present invention was measured. […] Orientbio, Korea) were divided into groups, each consisting of 10 mice. […] After 30 minutes, the mice were subjected to cervical dislocation, and blood was discharged from the abdominal aorta, after which the trachea was completely excised. The isolated trachea was cold-stored in 1 ml of physiological saline.

5-lipoxygenase = molecular target: T1, 5-lipoxygenase (Rattus norvegicus, UniProt P12527); experiment: 5-Lipoxygenase inhibitory activity (leukotriene production in RBL-1 cells, cysteinyl leukotriene EIA); format: cell-based; details: RBL-1, read-out: 5-lipoxygenase inhibition rate(%)
T1 construct: rat basophilic leukemia cells (RBL-1) were stabilized using serum-free RPMI medium; endogenous in cells; host or cells: RBL-1 (rat basophilic leukemia cells)
T1 sequence (P12527 whole entry): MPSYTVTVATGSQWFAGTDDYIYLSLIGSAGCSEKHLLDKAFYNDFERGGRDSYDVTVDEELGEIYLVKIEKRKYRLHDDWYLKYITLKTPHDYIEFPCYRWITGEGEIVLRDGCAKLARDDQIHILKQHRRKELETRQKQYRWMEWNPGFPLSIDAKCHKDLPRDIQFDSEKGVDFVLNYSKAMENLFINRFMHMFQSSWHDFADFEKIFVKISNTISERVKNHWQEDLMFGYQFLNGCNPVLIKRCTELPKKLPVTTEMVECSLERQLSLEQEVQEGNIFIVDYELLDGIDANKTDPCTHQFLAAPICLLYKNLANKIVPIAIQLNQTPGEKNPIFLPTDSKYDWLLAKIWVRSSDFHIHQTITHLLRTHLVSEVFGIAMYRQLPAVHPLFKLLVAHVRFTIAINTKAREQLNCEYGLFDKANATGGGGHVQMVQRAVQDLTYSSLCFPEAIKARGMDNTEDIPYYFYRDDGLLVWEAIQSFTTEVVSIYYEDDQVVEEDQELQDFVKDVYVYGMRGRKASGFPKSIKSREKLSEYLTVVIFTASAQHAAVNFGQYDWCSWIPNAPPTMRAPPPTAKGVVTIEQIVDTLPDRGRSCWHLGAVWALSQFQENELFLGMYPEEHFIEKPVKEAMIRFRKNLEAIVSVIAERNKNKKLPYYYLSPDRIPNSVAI
Experimental: Specifically, rat basophilic leukemia cells (RBL-1) were stabilized using serum-free RPMI medium at 37° C., and each of the extracts and arachidonic acid as a substrate were added thereto and incubated for 15 minutes to produce leukotriene. The amount of the produced leukotriene was measured using a cysteinyl leukotriene EIA kit. As comparative drugs, the 5-lipoxygenase inhibitors zileuton and montelukast were used.

[2] = system: croton oil-induced ear edema; experiment: Croton oil-induced ear edema; format: in vivo, mice; details: oral dose 100 mg/kg
Experimental: When croton oil is applied to the skin, an inflammatory reaction occurs to produce redness, a swelling and a blister on the applied surface (Archives of Pharmacal Research, 1993, 16[1], 18-24).
As experimental animals, male ICR mice (weighed 20-23 g; Orientbio, Korea) were divided into groups, each consisting of 10 mice. Each of the test samples and the comparative drug COX-2 inhibitor Celecoxib (100 mg/kg, Pfizer) was orally administered into the mice which have been fasted for one day, and after 1 hour, a solution of 3% croton oil in acetone was applied uniformly to the inner and outer sides of the right ear of each mouse to induce ear edema.

[3] = system: citric acid-induced coughing; experiment: Test for antitussive activity (citric acid-induced coughing); format: in vivo, guinea pigs; details: Oral dose 50 mg/kg
Experimental: In order to evaluate the antitussive activity of the extract of the present invention (American Journal of Respiratory and Critical Care Medicine, 1998, 158 [1], 42-48), the extract of Example 2 was administered into guinea pigs, and then citric acid was sprayed into the guinea pig to induce coughing, after which the number of coughs was measured. Citric acid is frequently used in studies on the activity of airway sensory nerves, and the inhalation of citric acid causes bronchoconstriction, nasal stimulation, coughing, bronchial hypersensitivity and the like.
Specifically, as experimental animals, Hartely male guinea pigs (weighed 350-400 g; Orientbio, Korea) were divided into groups, each consisting of 10-12 animals. Each of the extract of Example 2 and 50 mg/kg of the comparative drug theobromine (Sigma) was administered orally into the grouped mice which have been fasted for one day. After 1 hour, 0.3M citric acid as a cough inducer was sprayed into the animals to induce coughing.

[4] = system: leukocytes in the bronchoalveolar lavage; experiment: Test for inhibition of bronchial inflammation, leukocytes in bronchoalveolar lavage of ovalbumin-sensitized mice; format: in vivo; details: oral 10 mg/kg b.i.d.
Experimental: Specifically, BALB/c female mice (6.5 weeks old, SLC, Japan) were sensitized by intraperitoneal administration of 0.2 ml of a 1:1 mixture of 10 μg of ovalbumin (OVA, Sigma) and 4 mg of aluminum hydroxide (Alum, Pierce) at days 0, 7 and 14. At 8 days and 10 days after the final sensitization, aerosol prepared from 1.0% ovalbumin using high-pressure compressed air was sprayed into the mice for 50 minutes to induce airway inflammation. As a comparative drug, 10 mg/kg of rolipram (Sigma) was used. The comparative drug and the test materials were orally administered twice (morning and evening) a day during a period ranging from 21 days to 23 days after the first sensitization. At 24 hours after the final induction of inflammation, the bronchoalveoli were laved with 1.5 ml of phosphate buffered saline (pH 7.2) to collect a bronchoalveolar lavage. The number of leukocytes in the lavage was counted using a hematology analyzer (Drew Scientific Inc., HEMAVET HV950FS, M-950HV).

[5] = system: extracted bronchi of guinea pigs; experiment: Test for bronchoconstriction (in vitro), ovalbumin-induced constriction of isolated sensitized bronchi; details: Cavia porcellus, read-out: Bronchoconstriction inhibition rate(%)
Experimental: The comparative drug rolipram was used at a concentration of 20 μM, and each of the extracts was used at a concentration of 0.3 mg/ml.
Specifically, Hartely male guinea pigs (400-500 g, BGI, Korea) were sensitized by intravenous injection with 2 ml/kg of anti-ovalbumin anti-serum. At 48 hours after sensitization, the guinea pigs were sacrificed and the bronchi were extracted therefrom. Then, other tissues attached to the bronchi were removed using a tyrode solution, and each of the bronchi was cut in a ring shape containing 2-3 cartilages. Then, the cartilage portion of the ring was excised while the bronchial muscle was preserved. Then, a string was connected to both sides of each bronchus which was then suspended in an organ bath and stabilized for a predetermined time. Then, 10 μg/ml of carbachol was added to induce the maximum constriction of the bronchi which were then washed with a tyrode solution and stabilized. Next, 5 μM of indomethacin was added to each bronchus, and after 1 minute, each of the extracts was added to each bronchi, and after 5 minutes, 20 μg/ml of ovalbumin was added to induce bronchoconstriction. […] The relaxation of the bronchi was measured using a physiological activity meter connected (powerlab 8/30, AD Instrument) with a force transducer (WPI).

## Nc1c(Br)cc(Br)cc1CN[C@H]1CC[C@H](O)CC1 [Ambroxol, ambroxol]
[1]; Oral dose 250 mg/kg
  Expectorant activity (%): 27%

## CC(c1cc2ccccc2s1)N(O)C(N)=O (stereo not shown) [Zileuton, zileuton]
5-lipoxygenase
  inhibition at 1 µM: 63%

## Cc1ccc(-c2cc(C(F)(F)F)nn2-c2ccc(S(N)(=O)=O)cc2)cc1 [Celecoxib]
[2]
  Ear edema inhibition rate (%): 17%

## Cn1cnc2c1c(=O)[nH]c(=O)n2C [theobromine]
[3]
  Cough inhibition rate (%): 36%

## [Cl-].[Cl-].[Mg+2] [Magnesium chloride]
[1]; Oral dose 500 mg/kg
  Expectorant activity (%): 33%

## COc1ccc(C2CNC(=O)C2)cc1OC1CCCC1 (stereo not shown) [rolipram]
[4]
  Inhibition rate (%) of pulmonary bronchial inflammation: 22%
[5]
  inhibition at 20 µM: 62%
